Results: PubChem BioAssay AID1963426 (Molecular Pharmacology Branch, DTP, NCI, 2024)
“And” between values parts separate entries of the source, which are not always exact repeats. Equal entries are not always repeated.

Tested on: 186277-243-T-J2-PDC complex spheroid growth, % test/control
Experiment: Anticancer human tumor 186277-243-T-J2-PDC patient-derived colon adenocarcinoma cell line growth inhibition [Asc]
Conditions: for viability, T/C: stronger effect = lower value
Description: Multicellular complex tumor spheroid response to apoptosis pathway targeting inhibitors Alrizomadlin, Pelcitoclax, and Dasminapant in combination with a variety of drugs and investigational agents in selected tumor cell lines
The MDM2 inhibitor alrizomadlin, the Bcl-2/Bcl-xL inhibitor pelcitoclax, and the IAPs inhibitor dasminapant were evaluated both individually and in combination with standard of care and investigational anticancer small molecules within a complex spheroid model of solid tumors. . Complex spheroids include a stromal component modeled by human endothelial cells (HUVEC) and fibroblasts modeled by human mesenchymal stem cells (MSCs). The concentration ranges selected for each drug and investigational agent were based upon clinically achievable concentrations if the clinical Cmax of the agent was known.
Compounds. The drugs and investigational agents: alrizomadlin (APG-115; NSC831270), pelcitoclax (APG-1252; NSC835773), dasminapant (APG-1387;NSC834197), TAK-243 (NSC785004), copanlisib (NSC809693), olaparib (NSC753686), talazoparib (NSC767125), cobimetinib (NSC 768068), eltanexor (KPT-8602, NSC 794443), abemaciclib (NSC 768073), sotorasib (NSC818433), adagrasib (NSC 831453), MRTX-1133 (NSC 836407), Iadademestat (ORY1001, NSC 806812), and RMC-4630 (NSC839698), were obtained from the NCI Developmental Therapeutics Program Chemical Repository. The FDA-approved anticancer drug set is available from the Developmental Therapeutics Program at https://dtp.cancer.gov/organization/dscb/obtaining/available plates.htm. […] The stock solutions were prepared in dimethyl sulfoxide (DMSO, Sigma-Aldrich, St. Louis, MO, cat. D2650) at 800-fold the tested concentration and stored at -70 degrees C prior to their use. All drugs and investigational agents were tested over a range starting from a high concentration at or near the clinical Cmax and decreasing in half-log increments. If the clinical Cmax for an agent had not been determined, the highest concentration tested was 10 microM.
The patient-derived cancer (PDC) cell lines include five colon adenocarcinomas: 186277-243-T-J2-PDC, 616215-338-R-J1-PDC, 439559-082-T-J2-PDC, 463943-066-T-J2-PDC, and 519858-162-T-J1-PDC; three pancreatic carcinomas: 323965-272-R-J2-PDC, 521955-158-R6-J3-PDC, and 521955-158-R2-J5-PDC; two uterine sarcomas: 327498-152-R-J2-PDC and 993429-296-R-J1-PDC; two rhabdomyosarcomas: 755483-174-R-J1-PDC and 772245-204-R-J1-PDC; two soft tissue sarcomas: 126254-015-R-J1-PDC and 494315-158-R-J1-PDC; two malignant fibrous histiocytomas: 317291-083-R-J1-PDC and 596521-263-R-J1-PDC; two breast carcinomas: 171881-019-R-J1-PDC and 885512-296-R-J2-PDC; and one ovarian carcinoma: 6556581-035-R-J-PDC were obtained from the NCI PDMR, (https://pdmr.cancer.gov). The established cell lines HSSY-2 synovial sarcoma (RRID:CVCL 8719), SYO-1 synovial sarcoma (RRID:CVCL_7146), MPNST malignant peripheral neural sheath tumor were obtained from the Sloan Kettering Institute. The following established cell lines were purchased from the American Type Culture Collection (ATCC, Manassas, VA), Sor the received from the NCI repository:, PANC-1 pancreatic carcinoma (CRL-1469, RRID:CVCL_0480), OVCAR-5 ovarian carcinoma (RRID:CVCL_1628), OVCAR-8 ovarian carcinoma (RRID:CVCL_1629), , MCF-7 breast carcinoma (CRL-12584, RRID:CVCL_0031), MDA-MB-231 breast carcinoma (CRL-12532, RRID:CVCL_0062), NCI-H1876 small cell lung carcinoma (CRL-5902, RRID:CVCL_1503), NCI-H510A small cell lung carcinoma (HTB-184, RRID:CVCL_1565), NCI-H1417 (CRL-5869, RRID:CVCL_1469), and NCI-H196 small cell lung carcinoma (CRL-5823, RRID:CVCL_1509). Dr. Peter Houghton (Greehey Children's Cancer Research Institute, University of Texas Health Science Center, San Antonio, TX) provided Rh-18 rhabdomyosarcoma (RRID:CVCL_1659). Pooled donor human umbilical vein endothelial cells (HUVEC, Lonza, cat. CC-2519) and human mesenchymal stem cells (hMSC, Lonza, cat. PT-2501) were purchased from Lonza (Walkersville, MD).
Cell Culture. […]

[1] = curve of first compound, second compound 0.03 µM
[2] = curve of first compound, second compound 0.0949 µM
[3] = curve of first compound, second compound 0.3 µM
[4] = curve of first compound, second compound 0.949 µM
[5] = curve of first compound, second compound 3 µM
[6] = second compound 0.03 µM, first compound 0.0316 µM
[7] = second compound 0.03 µM, first compound 0.1 µM
[8] = second compound 0.0949 µM, first compound 0.0316 µM
[9] = second compound 0.0949 µM, first compound 0.1 µM
[10] = second compound 0.3 µM, first compound 0.0316 µM
[11] = second compound 0.3 µM, first compound 0.1 µM
[12] = second compound 0.949 µM, first compound 0.0316 µM
[13] = second compound 0.949 µM, first compound 0.1 µM
[14] = second compound 3 µM, first compound 0.0316 µM
[15] = second compound 3 µM, first compound 0.1 µM
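Note: spheroids exposed to agents for 7 days.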
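Throughout, for viability, T/C: 100% = DMSO vehicle control wells.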

**Q.** `C=C(F)C(=O)N1CCN(c2nc(OCC3CCCN3C)nc3c2CCN(c2cccc4cccc(Cl)c24)C3)CC1CC#N` (stereo unspecified) was tested. Which viability, T/C (compound 0.0316 µM) did it give?
**A.** The viability, T/C was 107% and 98.5% and 102%.

**Q.** And the viability, T/C (compound 0.1 µM)?
**A.** Its viability, T/C is 112% and 77.5% and 116%.

**Q.** And the viability, T/C (compound 0.316 µM)?
**A.** Its viability, T/C is 107% and 83.6% and 103%.

**Q.** And the viability, T/C (compound 1 µM)?
**A.** The viability, T/C was 103% and 77.3% and 80.7%.

**Q.** And the viability, T/C (compound 3.16 µM)?
**A.** Its viability, T/C is 96.5% and 85% and 109%.

**Q.** And the IC50 (curve of compound)?
**A.** Its IC50 is 5.7 µM and 5.17 µM and 9.28 µM.

**Q.** What does the source list for `NC1CCC(NC2CC2c2ccccc2)CC1` (stereo unspecified) + CCN1C(C(=O)NC23CCC(C(=O)O)(CC2)CC3)C(c2cccc(Cl)c2F)C2(C(=O)Nc3cc(Cl)ccc32)C12CCCCC2?
**A.** IC50 [1]: > 0.1 µM; IC50 [2]: > 0.1 µM; IC50 [3]: > 0.1 µM; IC50 [4]: > 0.1 µM; IC50 [5]: < 0.000316 µM; viability, T/C (second compound 0.03 µM, first compound 0.000316 µM): 111%; viability, T/C (second compound 0.03 µM, first compound 0.001 µM): 138%; viability, T/C (second compound 0.03 µM, first compound 0.00316 µM): 112%; viability, T/C (second compound 0.03 µM, first compound 0.01 µM): 106%; viability, T/C [6]: 123%; viability, T/C [7]: 113%; viability, T/C (second compound 0.0949 µM, first compound 0.000316 µM): 114%; viability, T/C (second compound 0.0949 µM, first compound 0.001 µM): 132%; viability, T/C (second compound 0.0949 µM, first compound 0.00316 µM): 134%; viability, T/C (second compound 0.0949 µM, first compound 0.01 µM): 131%; viability, T/C [8]: 131%; viability, T/C [9]: 141%; viability, T/C (second compound 0.3 µM, first compound 0.000316 µM): 93.4%; viability, T/C (second compound 0.3 µM, first compound 0.001 µM): 97.8%; viability, T/C (second compound 0.3 µM, first compound 0.00316 µM): 94.9%; viability, T/C (second compound 0.3 µM, first compound 0.01 µM): 93.3%; viability, T/C [10]: 92.9%; viability, T/C [11]: 91.3%; viability, T/C (second compound 0.949 µM, first compound 0.000316 µM): 66.3%; viability, T/C (second compound 0.949 µM, first compound 0.001 µM): 69.2%; viability, T/C (second compound 0.949 µM, first compound 0.00316 µM): 66.1%; viability, T/C (second compound 0.949 µM, first compound 0.01 µM): 65.8%; viability, T/C [12]: 67.9%; viability, T/C [13]: 65.7%; viability, T/C (second compound 3 µM, first compound 0.000316 µM): 42.1%; viability, T/C (second compound 3 µM, first compound 0.001 µM): 43.6%; viability, T/C (second compound 3 µM, first compound 0.00316 µM): 44.1%; viability, T/C (second compound 3 µM, first compound 0.01 µM): 39.5%; viability, T/C [14]: 41.4%; viability, T/C [15]: 42.8%

**Q.** With `C=CC(=O)N1CCN(c2nc(=O)n(-c3c(C)ccnc3C(C)C)c3nc(-c4c(O)cccc4F)c(F)cc23)C(C)C1` (stereo unspecified) + CCN1C(C(=O)NC23CCC(C(=O)O)(CC2)CC3)C(c2cccc(Cl)c2F)C2(C(=O)Nc3cc(Cl)ccc32)C12CCCCC2 as the molecule, how does the IC50 [1] read?
**A.** Its IC50 is > 10 µM.

**Q.** And the IC50 [2]?
**A.** Its IC50 is > 10 µM.

**Q.** What about the IC50 [3] of the same molecule?
**A.** Its IC50 is > 10 µM.

**Q.** What about the IC50 [4] of the same molecule?
**A.** Its IC50 is 3.74 µM.

**Q.** And the IC50 [5]?
**A.** Its IC50 is < 0.0316 µM.

**Q.** What about the viability, T/C [6] of the same molecule?
**A.** The viability, T/C was 124%.

**Q.** And the viability, T/C [7]?
**A.** Its viability, T/C is 119%.

**Q.** And the viability, T/C (second compound 0.03 µM, first compound 0.316 µM)?
**A.** The viability, T/C was 119%.

**Q.** And the viability, T/C (second compound 0.03 µM, first compound 1 µM)?
**A.** The viability, T/C was 127%.

**Q.** What about the viability, T/C (second compound 0.03 µM, first compound 3.16 µM) of the same molecule?
**A.** Its viability, T/C is 122%.

**Q.** And the viability, T/C (second compound 0.03 µM, first compound 10 µM)?
**A.** Its viability, T/C is 125%.

**Q.** What about the viability, T/C [8] of the same molecule?
**A.** The viability, T/C was 119%.

**Q.** What about the viability, T/C [9] of the same molecule?
**A.** The viability, T/C was 92.9%.

**Q.** What about the viability, T/C (second compound 0.0949 µM, first compound 0.316 µM) of the same molecule?
**A.** Its viability, T/C is 112%.

**Q.** What about the viability, T/C (second compound 0.0949 µM, first compound 1 µM) of the same molecule?
**A.** The viability, T/C was 94.5%.

**Q.** What about the viability, T/C (second compound 0.0949 µM, first compound 3.16 µM) of the same molecule?
**A.** Its viability, T/C is 113%.

**Q.** And the viability, T/C (second compound 0.0949 µM, first compound 10 µM)?
**A.** The viability, T/C was 103%.

**Q.** What about the viability, T/C [10] of the same molecule?
**A.** Its viability, T/C is 74.9%.

**Q.** And the viability, T/C [11]?
**A.** The viability, T/C was 82.2%.

**Q.** What about the viability, T/C (second compound 0.3 µM, first compound 0.316 µM) of the same molecule?
**A.** Its viability, T/C is 81.2%.

**Q.** And the viability, T/C (second compound 0.3 µM, first compound 1 µM)?
**A.** The viability, T/C was 79.4%.

**Q.** What about the viability, T/C (second compound 0.3 µM, first compound 3.16 µM) of the same molecule?
**A.** The viability, T/C was 74.7%.

**Q.** And the viability, T/C (second compound 0.3 µM, first compound 10 µM)?
**A.** The viability, T/C was 69.1%.

**Q.** What about the viability, T/C [12] of the same molecule?
**A.** Its viability, T/C is 62.5%.

**Q.** And the viability, T/C [13]?
**A.** Its viability, T/C is 59.3%.

**Q.** And the viability, T/C (second compound 0.949 µM, first compound 0.316 µM)?
**A.** The viability, T/C was 58.1%.

**Q.** What about the viability, T/C (second compound 0.949 µM, first compound 1 µM) of the same molecule?
**A.** Its viability, T/C is 57.3%.

**Q.** What about the viability, T/C (second compound 0.949 µM, first compound 3.16 µM) of the same molecule?
**A.** The viability, T/C was 51.4%.

**Q.** And the viability, T/C (second compound 0.949 µM, first compound 10 µM)?
**A.** The viability, T/C was 42%.

**Q.** What about the viability, T/C [14] of the same molecule?
**A.** Its viability, T/C is 33.2%.

**Q.** And the viability, T/C [15]?
**A.** The viability, T/C was 36%.

**Q.** What about the viability, T/C (second compound 3 µM, first compound 0.316 µM) of the same molecule?
**A.** Its viability, T/C is 35.9%.

**Q.** And the viability, T/C (second compound 3 µM, first compound 1 µM)?
**A.** The viability, T/C was 36.5%.

**Q.** What about the viability, T/C (second compound 3 µM, first compound 3.16 µM) of the same molecule?
**A.** Its viability, T/C is 41%.

**Q.** What about the viability, T/C (second compound 3 µM, first compound 10 µM) of the same molecule?
**A.** Its viability, T/C is 32.7%.
